This is an account of results in ChEMBL document CHEMBL1133393, “Synthesis of 8-chloro-benzo[c]quinolizin-3-ones as potent and selective inhibitors of human steroid 5alpha-reductase 1” (Bioorg Med Chem Lett, 2000).

The target of the test is T1, 3-oxo-5-alpha-steroid 4-dehydrogenase 1 (Homo sapiens, UniProt P18405).
T1 sequence (P18405 whole entry): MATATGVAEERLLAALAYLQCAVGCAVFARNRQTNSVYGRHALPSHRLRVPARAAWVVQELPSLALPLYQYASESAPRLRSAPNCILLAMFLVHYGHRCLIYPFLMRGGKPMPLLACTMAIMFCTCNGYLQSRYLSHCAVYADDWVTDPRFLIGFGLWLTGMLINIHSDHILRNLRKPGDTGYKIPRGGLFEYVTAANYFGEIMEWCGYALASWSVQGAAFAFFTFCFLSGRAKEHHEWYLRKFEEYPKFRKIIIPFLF
The test is described as follows: Inhibition of human Steroid 5-alpha-reductase type I.

For the molecule `O=C1C=CN2c3ccc(Cl)cc3CC[C@H]2C1`, the IC50 was 459 nM.

Take `C[C@H]1Cc2cc(Cl)ccc2N2C=CC(=O)C[C@H]12`: the half-inhibitory concentration (IC50) was determined as 9100 nM.

`C[C@@H]1CC2=CC(=O)CCN2c2ccc(Cl)cc21` gave a 50% inhibitory concentration (IC50) of 14.4 nM.

`C[C@H]1Cc2cc(Cl)ccc2N2CCC(=O)C=C12` yielded a 50% inhibitory concentration (IC50) of 346 nM.

Regarding `CC(C)CCCC(C)[C@H]1CCC2C3C(CC[C@@]21C)[C@@]1(C)CCC(=O)N(C)C1C[C@@H]3C` (some centres not stated), the 50% inhibitory concentration (IC50) was 0.5 nM.

`O=C1C=C2CCc3cc(Cl)ccc3N2CC1` gave an IC50 of 49 nM.

Turning to `C[C@@H]1C[C@H]2CC(=O)C=CN2c2ccc(Cl)cc21`, half-maximal inhibition (IC50) was put at 188 nM.
